The record followed here is patent US20250092065A1, “2-(INDAZOL-5-YL)-6-(PIPERIDIN-4-YL)-1,7-NAPHTHYRIDINE DERIVATIVES AND RELATED COMPOUNDS AS MODULATORS FOR SPLICING NUCLEIC ACIDS AND FOR THE TREATMENT OF PROLIFERATIVE DISEASES” (REMIX THERAPEUTICS INC., priority 2022, published 2025).

SMILES strings stand for the structures. Read-outs that look alike come from different tables or passages of the source.

The subject of data set [1] is MYB mRNA. In words: RT-qPCR splicing assay, MYB mRNA canonical (CJ) and alternative (AJ) junction. The format is cell-based, human. Conditions: Homo sapiens; for AC50: MYB alternative junction mRNA, read-out: MYB AJ (increase in AJ mRNA, AC50). An outline of the steps:
(§1)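 Both isoforms, CJ and AJ, read by qPCR from crude lysates of treated A673 or K562 cells; 24 h, 37 °C, maximum 10 uM. Normalization: housekeeper ΔCt, then DMSO ΔΔCt.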
A general note: Real-time PCR tracks product formation cycle by cycle.

The test system of data set [2] is SMN2 mRNA. In words: RT-qPCR splicing assay, SMN2 mRNA. The class given is cell-based, human. Conditions: Homo sapiens, canonical junction qPCR panel, Table 4; read-out: SMN2 IC50 (decrease in CJ mRNA levels). A digest of the protocol:
as §1

Data set [3] has as its system MYB. In words: HiBiT protein abundance assay, MYB (K562 HiBiT knock-in). The class given is cell-based, human. The following applies: HiBiT knock-in K562 cells, 24 hours, top dose 10 μM. An outline of the steps:
(§2)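 Steps: seed HiBiT knock-in K562 cells; add compound in 10-point 3-fold series from 10 μM final; incubate 24 h, 37 °C; add lytic HiBiT reagent, shake 5 min, wait 10 min; read luminescence. Normalize to parental K562 and DMSO controls, fit 4PL, take IC50.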
(In general: HiBiT is a short tag that completes a luciferase, so light tracks the accessible tagged protein.)

Data set [4] has as its system HTT. Briefly: HiBiT protein abundance assay, HTT (K562 HiBiT knock-in). The format is cell-based, human. Conditions: HiBiT knock-in K562 cells, 24 hours, top dose 10 μM. A digest of the protocol: as §2
Data set [5] relates to K562 cells. In words: Cell Titer Glo 2.0 cell viability (toxicity) assay, K562. Conditions: 500 cells/well, 72 hours. A general note: ATP-based viability assays read luminescence as a measure of living cells.
Setting [6] is: MYB canonical junction mRNA, RT-qPCR, read-out: MYB CJ (decrease in CJ mRNA levels, IC50).
[7] abbreviates: canonical junction qPCR panel, Table 4, read-out: MYB IC50 (decrease in CJ mRNA levels).

By AC50 is commonly meant the concentration giving half of the maximal activity seen. Usually IC50 stands for the concentration at which inhibition is half-maximal. `Cc1c(O)c(-c2nc(C(=O)O)c3cc(N4CCNCC4)ccc3n2)cc2cn(C)nc12` [Compound 524, 2-(6-hydroxy-2,7-dimethylindazol-5-yl)-6-(piperazin-1-yl) quinazoline-4-carboxylic acid]: the AC50 in data set [1] (RT-qPCR) was above 10000 nM. In addition, the 50% inhibitory concentration (IC50) is above 10000 nM in data set [1] (setting [6]); above 10000 nM in data set [1] (setting [7]); 1000 to 10000 nM in data set [2]; above 10000 nM in data set [3]; above 10000 nM in data set [4]. Also, the “Effect of Exemplary Compounds on Cell Viability, K562” value (“Effect of Exemplary Compounds” for short) in data set [5] was “D (D represents greater than 10 μM in K562 cells)”.
For the molecule `Cc1c(O)c(-c2ncc3cc(N4C[C@@H](C)N[C@@H](C)C4)ccc3n2)cc2cn(C)nc12` [Compound 525, 5-{6-[(3R,5S)-3,5-dimethylpiperazin-1-yl]quinazolin-2-yl}-2,7-dimethylindazol-6-ol], in data set [1] (RT-qPCR), the AC50 is below 100 nM. In addition, the IC50 in data set [1] (setting [6]) is below 100 nM; in data set [1] (setting [7]) it was below 100 nM; in data set [2] it was below 100 nM; in data set [3], below 100 nM; in data set [4], 100 to 1000 nM. For the same molecule, in data set [5], the “Effect of Exemplary Compounds” value is recorded as “B (B represents 100-1000 nM)”.
In the case of `Cc1c(O)c(-c2ncc3nc(N4C[C@@H](C)N[C@@H](C)C4)ccc3n2)cc2cn(C)nc12` [Compound 526, 5-{6-[(3R,5S)-3,5-dimethylpiperazin-1-yl]pyrido[3,2-d]pyrimidin-2-yl}-2,7-dimethylindazol-6-ol], in data set [1] (RT-qPCR), the half-maximal activity concentration (AC50) is 100 to 1000 nM. The IC50 in data set [1] (setting [6]) is below 100 nM; in data set [1] (setting [7]) it was below 100 nM; in data set [2], below 100 nM; in data set [3] it was 100 to 1000 nM; in data set [4], 100 to 1000 nM. Also, the “Effect of Exemplary Compounds” value in data set [5] is on record as “B (B represents 100-1000 nM)”.
`CNC(=O)c1nc(-c2cc3cn(C)nc3c(F)c2O)nc2ccc(N3C[C@@H](C)N[C@@H](C)C3)cc12` [Compound 527, 6-[(3R,5S)-3,5-dimethylpiperazin-1-yl]-2-(7-fluoro-6-hydroxy-2-methylindazol-5-yl)-N-methylquinazoline-4-carboxamide]: the AC50 in data set [1] (RT-qPCR) is below 100 nM. Further, the IC50 in data set [1] (setting [6]), in data set [1] (setting [7]), in data set [2], in data set [3] and in data set [4] was below 100 nM throughout. Further, the “Effect of Exemplary Compounds” value in data set [5] is listed as “A (A represents <100 nM)”.
On to `CNC(=O)c1nc(-c2cc3cn(C)nc3c(F)c2O)nc2ccc(N3CCC(N(C)C)CC3)cc12` [Compound 528, 6-[4-(dimethylamino)piperidin-1-yl]-2-(7-fluoro-6-hydroxy-2-methylindazol-5-yl)-N-methylquinazoline-4-carboxamide], for which, in data set [1] (RT-qPCR), the AC50 is below 100 nM. Moreover, the IC50 is below 100 nM in data set [1] (setting [6]); below 100 nM in data set [1] (setting [7]); below 100 nM in data set [2]; below 100 nM in data set [3]; 100 to 1000 nM in data set [4]. Besides, in data set [5], the “Effect of Exemplary Compounds” value is “A (A represents <100 nM)”.
For `CNC(=O)c1nc(-c2cc3cn(C)nc3c(F)c2O)nc2ccc(N3CCN[C@@H](C)C3)cc12` [Compound 529, 2-(7-fluoro-6-hydroxy-2-methylindazol-5-yl)-N-methyl-6-[(3S)-3-methylpiperazin-1-yl]quinazoline-4-carboxamide], the AC50 in data set [1] (RT-qPCR) is below 100 nM. The IC50 in data set [1] (setting [6]), in data set [1] (setting [7]), in data set [2], in data set [3] and in data set [4] was below 100 nM each time. The “Effect of Exemplary Compounds” value in data set [5] is “A (A represents <100 nM)”.
As for `CNC(=O)c1nc(-c2cc3cn(C)nc3cc2O)nc2ccc(N3CCN[C@@H](C)C3)cc12` [Compound 530, 2-(6-hydroxy-2-methylindazol-5-yl)-N-methyl-6-[(3S)-3-methylpiperazin-1-yl]quinazoline-4-carboxamide], the AC50 in data set [1] (RT-qPCR) was below 100 nM. In addition, the IC50 was below 100 nM in data set [1] (setting [6]); below 100 nM in data set [1] (setting [7]); below 100 nM in data set [2]; below 100 nM in data set [3]; 100 to 1000 nM in data set [4]. For the same molecule, the “Effect of Exemplary Compounds” value in data set [5] is “A (A represents <100 nM)”.
For the molecule `CNC(=O)c1nc(-c2cc3cn(C)nc3cc2O)nc2ccc(N3C[C@@H](C)N[C@@H](C)C3)cc12` [Compound 531, 6-[(3R,5S)-3,5-dimethylpiperazin-1-yl]-2-(6-hydroxy-2-methylindazol-5-yl)-N-methylquinazoline-4-carboxamide], in data set [1] (RT-qPCR), the AC50 is below 100 nM. Further, the IC50 in data set [1] (setting [6]) was below 100 nM; in data set [1] (setting [7]) it was below 100 nM; in data set [2], below 100 nM; in data set [3] it was below 100 nM; in data set [4] it was 100 to 1000 nM. Also, in data set [5], the “Effect of Exemplary Compounds” value is “A (A represents <100 nM)”.
On to `CNC(=O)c1nc(-c2cc3cn(C)nc3c(C)c2O)nc2ccc(N3CCNC4(CC4)C3)cc12` [Compound 532, 6-{4,7-diazaspiro[2.5]octan-7-yl}-2-(6-hydroxy-2,7-dimethylindazol-5-yl)-N-methylquinazoline-4-carboxamide], for which the AC50 in data set [1] (RT-qPCR) was below 100 nM. In addition, the concentration for half-maximal inhibition (IC50) was below 100 nM in data set [1] (setting [6]); below 100 nM in data set [1] (setting [7]); below 100 nM in data set [2]; below 100 nM in data set [3]; 100 to 1000 nM in data set [4]. Further, in data set [5], the “Effect of Exemplary Compounds” value is reported as “B (B represents 100-1000 nM)”.
On to `CNC(=O)c1nc(-c2cc3cn(C)nc3c(C)c2O)nc2ccc(N3CCNCC3)nc12` [Compound 533, 2-(6-hydroxy-2,7-dimethylindazol-5-yl)-N-methyl-6-(piperazin-1-yl)pyrido[3,2-d]pyrimidine-4-carboxamide], for which the AC50 in data set [1] (RT-qPCR) lay in the range of 100 to 1000 nM. Further, the concentration for half-maximal inhibition (IC50) is 100 to 1000 nM in data set [1] (setting [6]); 100 to 1000 nM in data set [1] (setting [7]); below 100 nM in data set [2]; 100 to 1000 nM in data set [3]; 1000 to 10000 nM in data set [4]. Besides, the “Effect of Exemplary Compounds” value in data set [5] is given as “B (B represents 100-1000 nM)”.
Take `CNC(=O)c1nc(-c2cc3cn(C)nc3c(C)c2O)nc2ccc(N3C[C@@H](C)N[C@@H](C)C3)nc12` [Compound 534, 6-[(3R,5S)-3,5-dimethylpiperazin-1-yl]-2-(6-hydroxy-2,7-dimethylindazol-5-yl)-N-methylpyrido[3,2-d]pyrimidine-4-carboxamide]: the concentration at half-maximal activity (AC50) in data set [1] (RT-qPCR) lay in the range of 100 to 1000 nM. The IC50 was 100 to 1000 nM in data set [1] (setting [6]); 100 to 1000 nM in data set [1] (setting [7]); below 100 nM in data set [2]; 100 to 1000 nM in data set [3]; 1000 to 10000 nM in data set [4]. Besides, the “Effect of Exemplary Compounds” value in data set [5] is “B (B represents 100-1000 nM)”.
Regarding `CCNC(=O)c1nc(-c2cc3cn(C)nc3c(C)c2O)nc2ccc(N3C[C@@H](C)N[C@@H](C)C3)cc12` [Compound 535, 6-[(3R,5S)-3,5-dimethylpiperazin-1-yl]-N-ethyl-2-(6-hydroxy-2,7-dimethylindazol-5-yl)quinazoline-4-carboxamide], in data set [1] (RT-qPCR), the AC50 is below 100 nM. Besides, the concentration for half-maximal inhibition (IC50) in data set [1] (setting [6]), in data set [1] (setting [7]), in data set [2], in data set [3] and in data set [4] was below 100 nM throughout. Besides, the “Effect of Exemplary Compounds” value in data set [5] is “A (A represents <100 nM)”.
